For one assay, the system named is UBE3/129sv mice. The experiment in a line: Audiogenic-induced epilepsy test (Test 1) in Angelman syndrome mouse model. To be noted: oral gavage for 7 days, AS mice. Format: in vivo. As for the experimental part:
Three separate tests were performed to determine effects of two compounds, mibefradil and MK-8998 on behavioral and physiological deficits and epilepsy in a mouse model for Angelman syndrome. The tests included: audiogenic-induced epilepsy test (Test 1, T1), a battery of motor/behavioral tests (Test 2, T2) and long-term potentiation measurements (LTP, Test 3, T3). Completion of each test provided a quantitative result of mibefradil or MK-8998 effect on this test. For all three tests, 2 separate groups of mice were generated: group 1 for test 1 and group 2 for tests 2 and 3, as shown below in see Table 2 and each group consists of 6 subgroups, a-f.
For all behavioral and electrophysiology experiments female Ube3am^−/p^+KO mice (i.e., AS mice) were crossed with wild-type males, to generate heterozygous AS mice and littermate controls in the F1 hybrid 12952-C57BL/6 background. For epilepsy tests, AS mice are crossed with controls in the 12952/SvPasCrl background. In total, 2 groups of mice are required: group 1 for the epilepsy test (Table 2, group 1a-f) and group 2 for the behavioral test battery and electrophysiology (Table 2, group 2a-f). […] The number of mice used per test/subgroup is indicated in Table 2 and ranges from 5-7 mice/subgroup for electrophysiology, 10 mice/subgroup for epilepsy test, and 12 to 15 mice/subgroup for behavioral test battery. […]

The test system of the next assay is CaMKIIα. The conditions noted are these: striatum, cited from earlier work.

Where two headings read alike, the source gives them in different places.

We go through 3 compounds from patent publication US11273218B2, “Methods for treating Angelman syndrome and related disorders” (Cavion, Inc., priority 2015, dated 2022).

Regarding `CC(C)c1ccc(CC(=O)N[C@H](C)c2ccc(OCC(F)(F)F)cn2)cc1` [MK-8998], in the assay with UBE3/129sv mice (60 mg/kg, audiogenic-induced seizures), the “treated animals with seizures eliminated completely” value was “about 80%”. The “effect on audiogenic-induced seizures (in words)” value in the assay on UBE3/129sv mice (10, 30, 60 mg/kg) was “eliminated seizures in a dose-dependent manner”. On to `[Cl][Ni][Cl]` [NiCl2], for which, in the assay with CaMKIIα (100 μM), the “decrease of threonine autophosphorylation of CaMKIIα” value is on record as 35%.

Take `COCC(=O)O[C@]1(CCN(C)CCCc2nc3ccccc3[nH]2)CCc2cc(F)ccc2[C@@H]1C(C)C` [mibefradil]: the “decrease of threonine autophosphorylation of CaMKIIα” value in the assay on CaMKIIα (5 μM) was 37%.
